Some results are limits rather than exact numbers.

Consider 2 molecules from patent US20210290648A1, “Potentiation of B-Lactam Antibiotics and B-Lactam/B-Lactamase Inhibitor Combinations Against Multidrug and Extensively Drug-Resistant Pseudomonas Aeruginosa Using Non-Ribosomal Tobramycin-Cyclam Conjugates” (University of Manitoba, priority 2018, published 2021).

In series [1] the test system is MRSA ATCC 33592. Briefly: MIC, microbroth dilution. It counts as cell-based. Particulars: standalone. The protocol:
(§1) Antimicrobial Susceptibility Assay. The in vitro antimicrobial activity of all compounds/antibiotics against a panel of bacteria was evaluated by microbroth dilution method in accordance with the Clinical and Laboratory Standards Institute (CLSI) guidelines. Overnight grown bacterial cultures were diluted in saline to achieve a 0.5 McFarland turbidity, followed by 1:50 dilution in Mueller-Hinton broth (MHB) for inoculation to a final concentration of approximately 5×10^5CFU/mL. The antimicrobial agents were 2-fold serially diluted in MHB in a 96-well plate and incubated at 37° C. with equal volumes of inoculum for 18 h. The lowest concentration that prevented the visible growth of bacteria was defined as the MIC for each antimicrobial agent. The broth with or without bacterial cells was used as positive or negative control, respectively.

The test system of series [2] is E. coli ATCC 25922. Briefly: MIC, microbroth dilution. It is filed as cell-based. The settings on record: standalone. The protocol:
as §1

Series [3] deals with MSSE CANWARD-2008 81388. The series is described as follows: MIC, microbroth dilution. It counts as cell-based. The settings on record: standalone. The protocol:
as §1

Series [4] concerns β-lactamase-harboring MDR P. aeruginosa clinical isolates. Briefly: Triple combination susceptibility (β-lactam + avibactam + compound 2). It is filed as cell-based, Pseudomonas aeruginosa.
Description: The diazabicyclooctane β-lactamase inhibitor, avibactam, is able to inhibit a wide range of serine β-lactamases (class A, C, and D) but not metallo-β-lactamases (class B) (50, 51).^50,51 However, the high concentration of avibactam required to neutralize the effects of β-lactamase enzymes in these phenotypes is indicative of concomitant permeability barriers in the isolates, such as reduced porin uptake. […] The results of this study are shown in (FIG. 6). All isolates were resistant to all three β-lactam antibiotics used for the study. […] As expected, the study with meropenem was slightly different from others.
as §1
Checkerboard Assay. Combination studies with different antibiotics were performed in 96-well plates as previously described (22). Briefly, the antibiotic of interest was serially diluted in MHB along the abscissa while the adjuvant (newly synthesized conjugates) was serially diluted in MHB along the ordinate. This creates a 10×7 matrix wherein each well consists of a combination of different antibiotic and adjuvant concentrations. Overnight grown bacterial cultures were diluted in saline to achieve a 0.5 McFarland turbidity, followed by 1:50 dilution in Mueller-Hinton broth (MHB) for inoculation to a final concentration of approximately 5×10^5CFU/mL. Equal volume of this bacterial culture was then added to each well and incubated at 37° C. for 18 h. After incubation, the plates were read on EMax® Plus microplate reader (Molecular Devices, Sunnyvale, Calif., USA) at 590 nm. MIC was recorded as wells with the lowest concentration of drugs with no bacterial growth. The fractional inhibitory concentration (FIC) for each antibiotic was calculated by dividing the MIC of the antibiotic in the presence of adjuvant by the MIC of the antibiotic alone. Similarly, the FIC of adjuvant was calculated by dividing the MIC of the adjuvant in the presence of antibiotic by the MIC of the adjuvant alone. FIC index is the sum of both FICs. FIC indices of <0.5 were deemed synergistic; 0.5-4, no interaction; and >4, antagonistic.

For series [5] the following is noted: humans; cited from earlier work.

“5-O-(Octylcyclam)-tobramycin.9TFA [Compound 2]”: the MIC came to 64 µg/mL in series [1], 64 µg/mL in series [2] and 16 µg/mL in series [3]. For the same molecule, the “effect on activity of ceftolozane-tazobactam combinations” value in series [4] (all β-lactamase-harboring isolates tested) is reported as “did not improve the activity”. In addition, in series [4] (aztreonam + avibactam + compound 2, 8 μM each), the “isolates below aztreonam susceptible breakpoint” value is “all five isolates”. In addition, the “isolates reaching aztreonam susceptibility breakpoint (≤8 μg/ml)” value in series [4] (aztreonam + single adjuvant 8 μM) is on record as “two out of five”. Besides, the “isolates below ceftazidime susceptible breakpoint” value in series [4] (ceftazidime + avibactam + compound 2, 8 μM each) is given as “all isolates”. Moreover, the “isolates reaching ceftazidime susceptibility breakpoint (≤8 μg/ml)” value in series [4] (ceftazidime + single adjuvant 8 μM) is listed as “one of five”. Also, in series [4] (meropenem + avibactam + compound 2, 8 μM each), the “isolates reaching meropenem susceptible levels” value is “three out of five”. Further, the “isolates reaching meropenem susceptibility level” value in series [4] (meropenem + single adjuvant 8 μM) was “zero of five”. Moreover, in series [4] (single adjuvant at 8 μM, five isolates), the potentiation of ceftazidime was found to be 4 fold.

For the molecule `C[C@@H](O)[C@H]1C(=O)N2C(C(=O)O)=C(S[C@@H]3CN[C@H](C(=O)N(C)C)C3)[C@H](C)[C@H]12` [Meropenem], in series [5], the achievable plasma concentration was above 8 µg/mL.
